This is an account of results in paper PMC2949283 (The Biochemical journal, 2009).

Where two headings read alike, the source gives them in different places. A value given as a limit tells only on which side of the number the result lay.

Common to all, as to type: biochemical
Test [1] has as its target HuBChE-Wild Type (Homo sapiens, UniProt P06276). The experiment in a line: HuBChE inhibition kinetics. The note with it: for k2, carbamylation rate constant: HuBChE-Wild Type.
Test [2] has as its target Wild Type HuAChE (Homo sapiens, UniProt P22303). In words: HuAChE inhibition kinetics.
Test [3] deals with W86A HuAChE (Homo sapiens, UniProt P22303, W117A). In words: HuAChE inhibition kinetics.
Chain of W86A HuAChE (P22303 32-614 W117A): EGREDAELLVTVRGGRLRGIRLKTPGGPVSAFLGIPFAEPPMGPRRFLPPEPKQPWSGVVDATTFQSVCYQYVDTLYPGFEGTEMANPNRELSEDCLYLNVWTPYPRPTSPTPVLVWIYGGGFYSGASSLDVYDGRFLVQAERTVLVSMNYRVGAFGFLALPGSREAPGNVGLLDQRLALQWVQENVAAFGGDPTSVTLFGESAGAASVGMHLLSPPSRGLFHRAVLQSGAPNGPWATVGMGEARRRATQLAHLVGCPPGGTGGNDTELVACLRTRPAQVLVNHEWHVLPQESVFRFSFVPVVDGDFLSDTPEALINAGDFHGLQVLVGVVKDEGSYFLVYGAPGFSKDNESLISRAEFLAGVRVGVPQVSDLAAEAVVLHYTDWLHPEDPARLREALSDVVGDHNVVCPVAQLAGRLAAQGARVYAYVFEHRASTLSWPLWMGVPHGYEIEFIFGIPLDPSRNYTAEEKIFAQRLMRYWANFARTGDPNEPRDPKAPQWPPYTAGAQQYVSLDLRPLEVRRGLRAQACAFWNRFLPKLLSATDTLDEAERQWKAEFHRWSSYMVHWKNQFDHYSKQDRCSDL
The target of test [4] is W86F HuAChE (Homo sapiens, UniProt P22303, W117F). In words: HuAChE inhibition kinetics.
Chain of W86F HuAChE (P22303 32-614 W117F): as the sequence (P22303 32-614 W117A) above, with A86F counted along it
Test [5] has as its target Y133A HuAChE (Homo sapiens, UniProt P22303, Y164A). The experiment in a line: HuAChE inhibition kinetics.
Test [6] concerns the target Y337A HuAChE (Homo sapiens, UniProt P22303, Y368A). The experiment in a line: HuAChE inhibition kinetics.
Test [7] addresses Y337F HuAChE (Homo sapiens, UniProt P22303, Y368F). In words: HuAChE inhibition kinetics.
Test [8] deals with F338A HuAChE (Homo sapiens, UniProt P22303, F369A). In words: HuAChE inhibition kinetics.
Chain of F338A HuAChE (P22303 32-614 F369A): as the sequence (P22303 32-614 W117A) above, with A86W, F338A counted along it
The target in test [9] is Y133F HuAChE (Homo sapiens, UniProt P22303, Y164F). In words: HuAChE inhibition kinetics.
Chain of Y133F HuAChE (P22303 32-614 Y164F): as the sequence (P22303 32-614 W117A) above, with A86W, Y133F counted along it
Test [10] has as its target E202A HuAChE (Homo sapiens, UniProt P22303, E233A). The experiment in a line: HuAChE inhibition kinetics.
Test [11] addresses E202Q HuAChE (Homo sapiens, UniProt P22303, E233Q). In words: HuAChE inhibition kinetics.
In test [12] the target is E450A HuAChE (Homo sapiens, UniProt P22303, E481A). In words: HuAChE inhibition kinetics.
Chain of E450A HuAChE (P22303 32-614 E481A): as the sequence (P22303 32-614 W117A) above, with A86W, E450A counted along it
Test [13] addresses F295A HuAChE (Homo sapiens, UniProt P22303, F326A). The experiment in a line: HuAChE inhibition kinetics.
Test [14] has as its target F297A HuAChE (Homo sapiens, UniProt P22303, F328A). In words: HuAChE inhibition kinetics.
Test [15] deals with D74N HuAChE (Homo sapiens, UniProt P22303, D105N). In words: HuAChE inhibition kinetics.
Chain of D74N HuAChE (P22303 32-614 D105N): as the sequence (P22303 32-614 W117A) above, with D74N, A86W counted along it
The target in test [16] is W286A HuAChE (Homo sapiens, UniProt P22303, W317A). The experiment in a line: HuAChE inhibition kinetics.
Chain of W286A HuAChE (P22303 32-614 W317A): as the sequence (P22303 32-614 W117A) above, with A86W, W286A counted along it
Test [17] deals with Y341A HuAChE (Homo sapiens, UniProt P22303, Y372A). In words: HuAChE inhibition kinetics.
Chain of Y341A HuAChE (P22303 32-614 Y372A): as the sequence (P22303 32-614 W117A) above, with A86W, Y341A counted along it
Test [18] has as its target F295A/F338A HuAChE (Homo sapiens, UniProt P22303, F326A/F369A). The experiment in a line: HuAChE inhibition kinetics.
In test [19] the target is F295A/F338A/V407F HuAChE (Homo sapiens, UniProt P22303, F326A/F369A/V438F). In words: HuAChE inhibition kinetics.
Chain of F295A/F338A/V407F HuAChE (P22303 32-614 F326A/F369A/V438F): as the sequence (P22303 32-614 W117A) above, with A86W, F295A, F338A, V407F counted along it
The target of test [20] is F295L/F297V/Y337A HuAChE (Homo sapiens, UniProt P22303, F326L/F328V/Y368A). The experiment in a line: HuAChE inhibition kinetics.
Chain of F295L/F297V/Y337A HuAChE (P22303 32-614 F326L/F328V/Y368A): as the sequence (P22303 32-614 W117A) above, with A86W, F295L, F297V, Y337A counted along it
In test [21] the target is Y72N/Y124Q/W286A/ F295L/F297V/Y337A HuAChE (Homo sapiens, UniProt P22303, F326L/F328V/W317A/Y103N/Y155Q/Y368A). The experiment in a line: HuAChE inhibition kinetics.
Chain of Y72N/Y124Q/W286A/ F295L/F297V/Y337A HuAChE (P22303 32-614 Y103N/Y155Q/W317A/F326L/F328V/Y368A): as the sequence (P22303 32-614 W117A) above, with Y72N, A86W, Y124Q, W286A, F295L, F297V, Y337A counted along it
Test [22] addresses Y72N HuAChE (Homo sapiens, UniProt P22303, Y103N). In words: HuAChE inhibition kinetics.
In test [23] the target is F295L/F297V HuAChE (Homo sapiens, UniProt P22303, F326L/F328V). The experiment in a line: HuAChE inhibition kinetics.
Chain of F295L/F297V HuAChE (P22303 32-614 F326L/F328V): as the sequence (P22303 32-614 W117A) above, with A86W, F295L, F297V counted along it
In test [24] the target is F295A/F297A HuAChE (Homo sapiens, UniProt P22303, F326A/F328A). In words: HuAChE inhibition kinetics.
Chain of F295A/F297A HuAChE (P22303 32-614 F326A/F328A): as the sequence (P22303 32-614 W117A) above, with A86W, F295A, F297A counted along it
Test [25] has as its target Y72N/Y124Q/W286A/ F295L/F297V/Y337A/ V407F HuAChE (Homo sapiens, UniProt P22303, F326L/F328V/V438F/W317A/Y103N/Y155Q/Y368A). In words: HuAChE inhibition kinetics.
For test [26], the target named is W86A/Y337A HuAChE (Homo sapiens, UniProt P22303, W117A/Y368A). In words: biochemical.
Chain of W86A/Y337A HuAChE (P22303 32-614 W117A/Y368A): as the sequence (P22303 32-614 W117A) above, with Y337A counted along it
[27] abbreviates: read-out: Kd, Michaelis complex (Eq. 1), Y133A HuAChE, NI = No inhibition between […]10^−6- […]10^−4M.
The mark [28] stands for this setting: read-out: Kd, noncovalent inhibition (competition with ATC), Wild Type HuAChE.
Setting [29] is: read-out: Kd, noncovalent inhibition (competition with ATC), W86A HuAChE.
Setting [30] is: read-out: Kd, noncovalent inhibition (competition with ATC), Y337A HuAChE.
Where [31] appears, read: read-out: Kd, noncovalent inhibition (competition with ATC), F338A HuAChE.

Chain of F295A HuAChE (P22303 32-614 F326A): as the sequence (P22303 32-614 W117A) above, with A86W, F295A counted along it
Chain of F297A HuAChE (P22303 32-614 F328A): as the sequence (P22303 32-614 W117A) above, with A86W, F297A counted along it
Chain of Wild Type HuAChE (P22303 32-614): as the sequence (P22303 32-614 W117A) above, with A86W counted along it
Chain of Y337A HuAChE (P22303 32-614 Y368A): as the sequence (P22303 32-614 W117A) above, with A86W, Y337A counted along it
Chain of Y133A HuAChE (P22303 32-614 Y164A): as the sequence (P22303 32-614 W117A) above, with A86W, Y133A counted along it
Chain of HuBChE-Wild Type (P06276 29-602): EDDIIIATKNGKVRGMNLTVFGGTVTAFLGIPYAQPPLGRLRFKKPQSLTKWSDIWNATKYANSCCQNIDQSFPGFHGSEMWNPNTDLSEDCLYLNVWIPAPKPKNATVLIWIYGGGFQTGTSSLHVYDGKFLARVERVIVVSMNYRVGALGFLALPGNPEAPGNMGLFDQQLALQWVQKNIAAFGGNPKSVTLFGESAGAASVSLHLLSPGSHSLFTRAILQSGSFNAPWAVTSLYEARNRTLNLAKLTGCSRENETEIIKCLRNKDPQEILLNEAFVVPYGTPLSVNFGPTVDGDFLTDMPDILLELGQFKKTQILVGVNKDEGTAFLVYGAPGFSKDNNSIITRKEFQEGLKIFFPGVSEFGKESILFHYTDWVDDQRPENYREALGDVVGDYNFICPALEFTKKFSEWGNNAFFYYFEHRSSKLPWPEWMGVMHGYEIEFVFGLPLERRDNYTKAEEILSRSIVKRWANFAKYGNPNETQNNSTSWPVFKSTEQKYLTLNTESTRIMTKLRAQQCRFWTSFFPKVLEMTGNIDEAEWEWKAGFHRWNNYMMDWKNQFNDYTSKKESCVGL
Chain of E202Q HuAChE (P22303 32-614 E233Q): as the sequence (P22303 32-614 W117A) above, with A86W, E202Q counted along it
Chain of Y337F HuAChE (P22303 32-614 Y368F): as the sequence (P22303 32-614 W117A) above, with A86W, Y337F counted along it
Chain of E202A HuAChE (P22303 32-614 E233A): as the sequence (P22303 32-614 W117A) above, with A86W, E202A counted along it
Chain of Y72N HuAChE (P22303 32-614 Y103N): as the sequence (P22303 32-614 W117A) above, with Y72N, A86W counted along it
Chain of F295A/F338A HuAChE (P22303 32-614 F326A/F369A): as the sequence (P22303 32-614 W117A) above, with A86W, F295A, F338A counted along it
Chain of Y72N/Y124Q/W286A/ F295L/F297V/Y337A/ V407F HuAChE (P22303 32-614 Y103N/Y155Q/W317A/F326L/F328V/Y368A/V438F): as the sequence (P22303 32-614 W117A) above, with Y72N, A86W, Y124Q, W286A, F295L, F297V, Y337A, V407F counted along it

For the compound `CCN(C)C(=O)Oc1cccc([C@H](C)N(C)C)c1` [Rivastigmine, rivastigmine], in test [1] (HuBChE vs HuAChE), the “k2 higher than for HuAChE” value turned out to be 9 fold and the “reactivity toward HuBChE higher than toward HuAChE” value worked out at 15 fold. For the same compound, the “k2, carbamylation rate constant” value in [1] turned out to be 0.90 ± 0.03 min⁻¹.
As for `CN1CC[C@@]2(C)c3cc(OC(=O)Nc4ccccc4)ccc3N(C)[C@@H]12` [(−)-Phenserine, phenserine], the Kd in [2] turned out to be 1390 ± 550 nM; in [3], 20000 ± 9000 nM; in test [4], 870 ± 340 nM; in [5], 76000 ± 15000 nM; in test [6], 2750 ± 280 nM; in test [7] it was 280 ± 30 nM. Moreover, the Kd in test [8] is 41300 ± 9500 nM; in [9] it was 7600 ± 1900 nM; in test [10], 9100 ± 3600 nM; in test [11], 17400 ± 3400 nM; in test [12] it was 7400 ± 1900 nM; in test [13], 90 ± 40 nM. Besides, the Kd is 3400 ± 610 nM in [15]; 160 ± 30 nM in [16]; 690 ± 210 nM in test [17]; 30 ± 8 nM in [18]; 27200 ± 5500 nM in [19]; 300 ± 6 nM in [20]. In addition, the Kd in [21] worked out at 120 ± 30 nM; in [1] it was 9000 ± 3000 nM; in [22], 740 ± 190 nM; in [23], 800 ± 360 nM; in [24] (Kd, Michaelis complex (Eq. 1)) it was 2800 ± 800 nM; in test [25] it was 20300 ± 6100 nM. In addition, the “k2, carbamylation rate constant” value in test [2] (Wild Type HuAChE) amounted to 0.9 ± 0.5 min⁻¹; in [3] (W86A HuAChE), 1.3 ± 1.0 min⁻¹; in test [4] (W86F HuAChE), 1.3 ± 0.9 min⁻¹; in test [5] (Y133A HuAChE), 0.4 ± 0.06 min⁻¹; in test [6] (Y337A HuAChE), 0.8 ± 0.4 min⁻¹; in test [7] (Y337F HuAChE), 0.9 ± 0.07 min⁻¹. Besides, the “k2, carbamylation rate constant” value turned out to be 0.7 ± 0.1 min⁻¹ in test [8] (F338A HuAChE); 0.3 ± 0.09 min⁻¹ in test [9] (Y133F HuAChE); 0.2 ± 0.1 min⁻¹ in test [10] (E202A HuAChE); 3.2 ± 1 min⁻¹ in test [11] (E202Q HuAChE); 0.2 ± 0.04 min⁻¹ in test [12] (E450A HuAChE); 2.1 ± 1.2 min⁻¹ in test [13] (F295A HuAChE). Moreover, the “k2, carbamylation rate constant” value in test [14] (F297A HuAChE) was found to be 1.0 ± 0.5 min⁻¹; in test [15] (D74N HuAChE), 0.7 ± 0.01 min⁻¹; in [17] (Y341A HuAChE) it was 0.7 ± 0.3 min⁻¹; in test [19] (F295A/F338A/V407F HuAChE) it was 0.3 ± 0.1 min⁻¹; in [20] (F295L/F297V/Y337A HuAChE) it was 0.9 ± 0.2 min⁻¹; in test [1], 0.6 ± 0.2 min⁻¹. Besides, the “k2, carbamylation rate constant” value was determined as 1.7 ± 0.2 min⁻¹ in [22] (Y72N HuAChE), 3.0 ± 1.8 min⁻¹ in [23] (F295L/F297V HuAChE) and 8.5 ± 2.5 min⁻¹ in test [24].
Regarding physovenine [(+)-Physovenine], the equilibrium dissociation constant (Kd) in test [2] (read-out: Kd, Michaelis complex (Eq. 1), Wild Type HuAChE) was 1400 ± 130 nM; in test [3] (read-out: Kd, Michaelis complex (Eq. 1), W86A HuAChE) it was 280000 ± 28500 nM; in test [5] (setting [27]) it was above 250000 nM; in [6] (read-out: Kd, Michaelis complex (Eq. 1), Y337A HuAChE) it was 15000 ± 1600 nM; in test [8] (read-out: Kd, Michaelis complex (Eq. 1), F338A HuAChE), 700 ± 100 nM; in [13] (read-out: Kd, Michaelis complex (Eq. 1), F295A HuAChE), 90 ± 25 nM. The Kd in test [14] (read-out: Kd, Michaelis complex (Eq. 1), F297A HuAChE) turned out to be 1000 ± 350 nM; in test [26] (read-out: Kd, Michaelis complex (Eq. 1), […], Table 3: Activity measured with TB) it was 281000 ± 45000 nM; in test [24] (read-out: Kd, Michaelis complex (Eq. 1)) it was 280 ± 80 nM.
Regarding `CNC(=O)Oc1ccc2c(c1)[C@]1(C)CCO[C@@H]1N2C` [(−)-Physovenine, physovenine], the Kd in test [2] is 430 ± 90 nM; in test [3] it was 120000 ± 24000 nM; in test [5] (setting [27]) it was above 250000 nM; in [6], 850 ± 200 nM; in test [8] it was 2560 ± 600 nM; in test [13], 100 ± 27 nM. For the same compound, the Kd in test [14] was 630 ± 40 nM; in test [26], 413000 ± 85000 nM; in [24] (Kd, Michaelis complex (Eq. 1)) it was 230 ± 70 nM.
Consider `CC(C)c1ccc(NC(=O)Oc2ccc3c(c2)C2(C)CCOC2N3C)cc1` (single isomer, unassigned; (-)) [(−)-Cymyl carbamate of physovenol, cymyl carbamate of physovenol], for which the Kd is 710 ± 120 nM in test [2] (setting [28]), 2500 ± 200 nM in [3] (setting [29]), 2700 ± 1000 nM in [6] (setting [30]) and 40000 ± 12000 nM in test [8] (setting [31]).
For `CC(C)c1ccc(NC(=O)Oc2ccc3c(c2)[C@]2(C)CCN(C)[C@@H]2N3C)cc1` [(−)Cymserine, cymserine], the mode of inhibition entry in [2] (HuAChE enzymes) is “noncovalent inhibitor”.
As to `CC(C)c1ccc(NC(=O)Oc2ccc3c(c2)C2(C)CCOC2N3C)cc1` (single isomer, unassigned; (+)) [(+)-Cymyl carbamate of physovenol, cymyl carbamate of physovenol], the Kd in [2] (setting [28]) was 1000 ± 200 nM; in test [3] (setting [29]) it was 5000 ± 1300 nM; in [6] (setting [30]), 2200 ± 700 nM; in [8] (setting [31]), 57100 ± 15000 nM.
